Converted amounts (≈) assume the structure as drawn.
Experiments:
Format in all cases: cell-based
[1] = test system: M. abscessus MABS11 biofilm; experiment: MBEC assay (minimum biofilm eradication concentration); settings: 18 h challenge
Text: (§1) In this study the MBEC assay was followed as described in the Innovotech Procedural Manual, version 2.1 with minor modifications to assess the antibiofilm activity of the antimicrobial compounds under investigation. The MBEC value refers to the Minimum Biofilm Eradication Concentration of each antimicrobial for each strain. The MBEC value is defined as the minimum antibiotic concentration where the optical density (OD) value at recovery is less than 10% of the control OD value and there is no growth observed with visual examination of the wells.
(§2) Step 1: Inoculation. For resuscitation, all strains were streaked on TSA plates, except for the mycobacteria which were streaked on 7H10 media, from the frozen stocks, and grew overnight at 37° C. (Table 6). From the plate, one colony was picked for inoculation in organism specific medium (OSM) and grown in a shaker incubator at 37° C. at 225 RPM until mid-log phase (OD 0.2-0.8). At mid log phase the culture was diluted in OSM medium (Table 6) to an OD of 0.05. 150 μL of it were aliquoted in each corresponding well in a 96-well MBEC plate (inoculation plate). Subsequently, the MBEC plates were incubated static at 37° C. for the appropriate time for each species (Table 7). During incubation, biofilm formed on the pegs.
(§3) Step 2: Challenge. Following incubation, the peg lid with the biofilm was washed twice in PBS and placed on a second 96-well plate with 200 μl of antibiotic dilutions (challenge plate). The challenge plate was then incubated at 37° C. for 18 h to allow exposure of the biofilm to antibiotics.
(§4) Step 3: Recovery. In the final step, the peg lid (with the biofilm after treatment with the antibiotics) was washed again twice in PBS and placed on a third 96-well plate (recovery plate) with 200 μl growth medium in each well to allow growth of any bacterial cells resistant to antibiotics at any concentration. The recovery of resistant cells was assessed by an end-point measurement of the optical density at 600 nm (OD600) for each well with a plate reader (FIG. 4).

[2] = test system: M. abscessus MABS1 biofilm; experiment: as above; settings: 18 h challenge
Text: as §1, §2, §3, §4

[3] = test system: M. abscessus MABS7 biofilm; experiment: as above; settings: 18 h challenge
Text: as §1, §2, §3, §4

[4] = test system: M. abscessus MABS4 biofilm; experiment: as above; settings: 18 h challenge
Text: as §1, §2, §3, §4

[5] = test system: M. abscessus MABS9 biofilm; experiment: as above; settings: 18 h challenge
Text: as §1, §2, §3, §4

[6] = test system: M. abscessus MABS2 biofilm; experiment: as above; settings: 18 h challenge
Text: as §1, §2, §3, §4

M. abscessus MABS1 = experiment: MIC (Table 8); settings: Mycobacteroides abscessus
M. abscessus MABS2 = experiment: MIC (Table 8); settings: Mycobacteroides abscessus
M. abscessus MABS9 = experiment: MIC (Table 8); settings: Mycobacteroides abscessus
M. abscessus MABS11 = experiment: MIC (Table 8); settings: Mycobacteroides abscessus
[7] = test system: M. abscessus biofilm (six clinical isolates); experiment: MBEC assay, summary over six clinical isolates; settings: at high concentrations (amikacin, clarithromycin: apart from MABS4)
Text: as §1, §2, §3
Step 3: Recovery. […] The recovery of resistant cells was assessed by an end-point measurement of the optical density at 600 nm (OD600) for each well with a plate reader (FIG. 4).
This is possibly, in part, due to the variable clumping of the cells observed in the biofilm biomass on the pegs. The clumping of the cells also impacted the OD readings. […] For replicate experiments with variable results, the final MBEC values were determined based on the higher MBEC concentration observed among the replicates.

M. abscessus MABS4 = experiment: MIC (Table 8); settings: Mycobacteroides abscessus
M. abscessus MABS7 = experiment: MIC (Table 8); settings: Mycobacteroides abscessus
[8] = test system: M. avium strain 104 (MAH 104) in THP-1 macrophages; experiment: Mycobacterial survival (CFU) in infected THP-1 macrophages; settings: 4-day and 7-day, drugs at MIC
Protocol: THP-1 macrophages were differentiated with 50 ng/ml PMA for 24 hours, followed by 24 hours in media prior to infection. Differentiated THP-1 macrophages were either infected with M. avium strains or M. abscessus strains for 1 hour with an multiplicity of infection (MOI) of 5 or uninfected. Cells were washed twice, followed by 1 hour of antibiotic treatment with 200 μg/ml of amikacin to remove extracellular bacteria. After the antibiotic step, cells were washed once more and BisEDT (BIZ) or amikacin was added once to selected wells (see in vitro doses below).
The treatments included: vehicle, amikacin, Soluble BisEDT (S Biz), Insoluble BisEDT (I Biz), and amikacin+BisEDT. The time points for sample preparation were 72 h for M. abscessus strains and 4- and 7-days post infection for M. avium strains. At the indicated timepoints cell media was removed and replaced with 400 ul of 0.1% triton x-100 in H2O for lysis. Wells were pipetted 25 times to disrupt cells then diluted and plated for CFU enumeration.

Row | Compound | MBEC [1] | MBEC [2] [µg/mL] | MBEC [3] [µg/mL] | MBEC [4] | MBEC [5] [µg/mL] | MBEC [6] [µg/mL] | MIC (M. abscessus MABS1) [µg/mL] | MIC (M. abscessus MABS2) [µg/mL] | MIC (M. abscessus MABS9) [µg/mL] | MIC (M. abscessus MABS11) [µg/mL] | biofilm susceptibility, in words [7] | MIC (M. abscessus MABS4) [µg/mL] | MIC (M. abscessus MABS7) [µg/mL] | mycobacterial survival (CFU, bacterial load) in THP-1 macrophages, in words [8] | MBEC ([4]; listed as clarithromycin) [µg/mL]
1 | CO[C@@]1(NC(=O)Cc2cccs2)C(=O)N2C(C(=O)O)=C(COC(N)=O)CS[C@@H]21 [Cefoxitin] | >256 µg/mL | >128 | >128 | >128 µg/mL | >256 | >128 | 8 (≈ 18.7 µM) | 8 (≈ 18.7 µM) | 32 (≈ 74.9 µM) | 16 (≈ 37.4 µM) | resistance | 16 (≈ 37.4 µM) | 16 (≈ 37.4 µM) | – | –
2 | C1C[S][Bi]([S]CC[S][Bi]2[S]CC[S]2)[S]1 [BisEDT in DMSO] | – | – | – | – | – | – | – | – | – | – | – | – | – | bacteriostatic effect | –
3 | C[C@@H](O)[C@H]1C(=O)N2C(C(=O)O)=C(SCCN=CN)C[C@H]12 [Imipenem] | >64 µg/mL | >32 | >64 | >64 µg/mL | >64 | >16 | 8 (≈ 26.7 µM) | 1 (≈ 3.34 µM) | 16 (≈ 53.4 µM) | 8 (≈ 26.7 µM) | – | 8 (≈ 26.7 µM) | 16 (≈ 53.4 µM) | – | –
4 | CC[C@H]1OC(=O)[C@H](C)[C@@H](O[C@H]2C[C@@](C)(OC)[C@@H](O)[C@H](C)O2)[C@H](C)[C@@H](O[C@@H]2O[C@H](C)C[C@H](N(C)C)[C@H]2O)[C@](C)(OC)C[C@@H](C)C(=O)[C@H](C)[C@@H](O)[C@]1(C)O [Clarithromycin] | >=32 μg/mL | >32 | >8 | <=4 μg/mL | >8 | >32 | 16 (≈ 21.4 µM) | 4 (≈ 5.35 µM) | 0.25 (≈ 0.334 µM) | 2 (≈ 2.67 µM) | resistance | 0.125 (≈ 0.167 µM) | 0.5 (≈ 0.668 µM) | – | 4

— US20250090576A1, “METHODS FOR TREATING NONTUBERCULOUS MYCOBACTERIA DISEASES” (Microbion Corporation, priority 2022, published 2025)
